In patent US6939569B1, “Medical device having anti-infective and contraceptive properties” (Oxibio, Inc., priority 1998, dated 2005):

How the values were obtained:
C. albicans (ATCC 66027) = assay: Microbicidal activity of iodate/iodide silicone tablet formulations in inoculated BHI, pH 4.0; type: cell-based; settings: together with iodate threshold
Description: Experiments were performed to optimize formulations used in fabricating the inventive device formulated with silicone elastomer. […] The polymer was allowed to cure with dibutyl tin dilaurate catalyst additions, and then devices were prepared (0.6 cm diameter 0.3 mm thick) using “hole punch” tablets from the disc shaped device to test for microbicidal activity using C. albicans inoculated BHI. […] Tablets obtained from the fabricated device were suspended in the inoculum at 1 tablet/ml. At varying intervals, aliquots of the inoculum, incubated at 35° C. in air, were subcultured to sheep blood agar plates and incubated for an additional 24 hours at 35° C. in air to determine the effect of the varying formulations on the C. albicans inoculums.

Structure (SMILES): II [elemental iodine]
- elemental iodine concentrations required to affect microbial killing (C. albicans): < 0.01%

Structure (SMILES): I [iodide]
- critical media concentration of iodide necessary to effect C. albicans killing (C. albicans (ATCC 66027)): ≥ 0.5 mM
